Reference: patent publication EP3283473B1, “GHRELIN O-ACYL TRANSFERASE INHIBITORS” (Eli Lilly and Company, priority 2015, dated 2016)

Molecular target: T1, human GOAT (Homo sapiens, UniProt Q96T53)
T1 construct: His; made in house; host or cells: Sf9 insect cells (baculovirus, pAN51 vector); microsomal membrane preparation
T1 sequence (Q96T53 1-435): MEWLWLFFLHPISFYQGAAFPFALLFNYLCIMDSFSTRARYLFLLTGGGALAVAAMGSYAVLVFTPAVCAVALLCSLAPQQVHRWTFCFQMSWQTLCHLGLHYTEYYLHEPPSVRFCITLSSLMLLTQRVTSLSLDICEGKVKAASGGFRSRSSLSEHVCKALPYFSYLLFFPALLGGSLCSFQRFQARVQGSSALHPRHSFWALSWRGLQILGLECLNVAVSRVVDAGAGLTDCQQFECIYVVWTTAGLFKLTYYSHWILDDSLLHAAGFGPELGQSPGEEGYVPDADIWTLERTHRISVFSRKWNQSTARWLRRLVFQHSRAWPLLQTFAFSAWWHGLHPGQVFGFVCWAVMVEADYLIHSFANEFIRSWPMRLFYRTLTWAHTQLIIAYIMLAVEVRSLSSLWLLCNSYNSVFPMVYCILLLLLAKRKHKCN
Experiment: In vitro cell free human GOAT enzymatic assay
Format: biochemical
Details: GOAT-His/sf9 membrane preparation
Description: Human GOAT gene (Accession number: NM_001100916) is subcloned to pAN51 baculoviral expression vector. Baculovirus stock is prepared following the Bac-to-Bac Protocol provided by the vendor, Invitrogen, California, USA. Five mililiters of human GOAT baculoviral stock are added to 500 mL Sf9 cells in HyQ SFX-Insect™ media (HyClone catalog number SH30278.02) at the density of 1 × 10^6 cells per milliliter in a 2 L Erlenmeyer flask. The flask with human GOAT gene infected Sf9 cells is put on a plate shaker at 120 rpm at 28 °C for 48 hours. After 48 hours incubation, cells are centrifuged at 1,000xg for 10 min at 4 °C. The cell pellets are collected and stored at -80 °C in a freezer until ready for further processing.
One gram cell pellets are suspended in 9 mL chilled homogenization buffer (50 mM Tris-HCl, 250 mM sucrose, adjusted to pH 7.5 and sterile filtered through 0.2 µm Millipore filter). The cell suspension is transferred to a Dounce glass homogenizer. Cell pellets are homogenized with 40 strokes on ice. The homogenate is centrifuged at 3,000 rpm in a Beckman swing bucket rotor at 4 °C for 10 min to remove unbroken cells. The supernatant is collected and centrifuged at 40,000 xg for 1 hour at 4 °C. The resulting membrane pellet is suspended in the homogenization buffer using a Dounce glass homogenizer and stored at -20 °C in the freezer for the assay. For long term storage of the human GOAT enzyme membrane preparation, the suspended membrane is stored in a -80 °C freezer.
Prepare test compounds in DMSO to make up a 0.2 mM stock solution. Serially dilute the stock solution in DMSO to obtain a ten-point dilution curve with final compound concentrations ranging from 10 µM to 0.5 nM in a 96-well round-bottom plate. Prepare enzyme and substrate solutions in assay buffer (0.02% TWEEN™-20 in 50 mM Tris, pH 7.5/250 mM sucrose/1 mg/mL BSA/10 mM EDTA). Add diluted compound (1 µL) to each well of row A to N of a corresponding low protein binding 384 well plate. Add human GOAT substrate mix (10 µL), consisting of human desacyl-ghrelin-biotin (CPC Scientific Inc., 6.0 µM final), octanoyl-coenzyme A (CoA) (Sigma, 60 µM final) and an AG specific antibody (WO 2006/091381)(1.0 µg/mL final), to the compounds. Add GOAT-His/sf9 enzyme preparation, that has been prepared in assay buffer (9 µL), to each well of the plate containing substrate and test compounds resulting in a final concentration of 0.01 µg/mL to initiate the reaction. Incubate the mixture for 1 hour at RT on a gently rotating oscillator. Add 4M guanidine hydrochloride (20 µL) to all wells, mix, and incubate for 3 hours to stop the reaction.
Prepare ELISA plates (STREPTAVIDIN SPECTRAPLATE™ 384, Perkin Elmer) by blocking with 2% Heat-Inactivated FBS in PBS (40 µL) (Invitrogen) blocking buffer for 3 hours. Aspirate the blocking buffer from ELISA plate and add blocking buffer (23 µL) to columns 1-24, rows A-N. Reserve rows O and P for the acylghrelin standard curve. Add the reaction mix (2 µL) to the ELISA plates. Prepare a 10 point standard curve (biotin-labeled octanoyl-ghrelin) by serial 2X dilution in blocking buffer containing 0.2M Guanidine hydrochloride starting at 2.5 pM. Incubate the reaction mixture or biotin-labeled AG standard in the ELISA plate overnight at 4 °C. The following day, wash the plate 3× with wash buffer (0.1% TWEEN™-20/PBS, 100 µL per well in each wash cycle). […] Read plates at 450 nm using an ENVISION® Multilabel plate reader. […]

- IC20: 69.5 ± 0.6 nM
Compound: Cc1nc(C(F)(F)F)nc(N)c1CCC1CCN(C(=O)[C@H](C)NC(=O)c2ccnn2C)CC1 [Example 2, N-[(1S)-2-[4-[2-[4-Amino-6-methyl-2-(trifluoromethyl)pyrimidin-5-yl]ethyl]-1-piperidyl]-1-methyl-2-oxo-ethyl]-2-methyl-pyrazole-3-carboxamide]
